Test results published in patent US20220104468A1, “MODULATION OF LC3-ASSOCIATED ENDOCYTOSIS PATHWAY AND GENETICALLY MODIFIED NON-HUMAN ANIMALS AS A MODEL OF NEUROINFLAMMATION AND NEURODEGENERATION” (St. Jude Children's Research Hospital, priority 2019, published 2022).

Columns and labels:
[1] = system: BV2 microglia; assay: Membrane-associated GFP-LC3 by flow cytometry; format: cell-based, murine; conditions: parental BV2 microglia, latrunculin A versus vehicle
Protocol: (§1) In an attempt to delineate the discrepancies in β-amyloid accumulation in the animal models presented above and the role of the autophagy proteins in this process, BV2 murine microglial cells expressing GFP-LC3 that are deficient in FIP200, ATG5, or Rubicon were engineered using CRISPR/Cas9 (FIG. 3A). Cells were cultured in the presence of neurotoxic oligomeric AP 1-42 labeled with TAMRA.
To quantify membrane association of GFP-LC3, cells were harvested and permeabilized using 200 μg/ml digitonin for 15 min on ice. Cytosolic GFP-LC3 was removed by washing cells 5× in cold PBS. Cells were then resuspended in 0.5% BSA in PBS for analysis by flow cytometry as described above.
(§2) To delineate between phagocytosis and endocytosis, cells were treated as indicated with the phagocytic inhibitor latrunculin A. Cells were pre-treated for 1 h prior to the addition of target substrates. The following control substrates were used, zymosan (phagocytosis) and dextran (endocytosis), both were fluorescently labeled as indicated. Co-incubation with specific substrates was carried out at 37° C. for 3h. Cells were either fixed for imaging or analyzed by flow cytometry as described above respectively.

[2] = system: BV2 microglia; assay: Phagocytosis versus endocytosis substrate uptake with latrunculin A (flow cytometry, imaging); format: cell-based, murine; conditions: 50 μM latrunculin A
Protocol: as §1
For all uptake assays, cells were analyzed without fixation. For membrane-associated GFP-LC3 analysis, cells were processed as described below. For brain infiltrating monocytes, cells were isolated as described using the Neural Tissue Dissociation Kit (Miltenyi). Primary cells were fixed, permeabilized, and stained using the Cyto Fix/Perm Staining Kit (BD Bioscience) and the indicated, conjugated primary antibodies. For all experiments, cells were analyzed using a Sony SP6800 Spectral Analyzer (Sony). All analyses were performed using FlowJo v10.4 (Tree Star). Fluorescent compensation was performed using BD compensation beads (BD Bioscience).
as §2

[3] = system: BV2 murine microglial cells expressing GFP-LC3; assay: LC3 recruitment/co-localization to β-amyloid in GFP-LC3 BV2 cells (imaging); format: cell-based; conditions: parental BV2 GFP-LC3 cells, TAMRA-labeled oligomeric peptide
Protocol: as §1
(§3) Both labeled and unlabeled Ab1-42 was purchased in lyophilized form and resuspended according to the manufacturer's recommendation at a concentration of 100 μM (Anaspec). In brief, Ab1-42 was resuspended to 5 mM in DMSO and then adjusted to 100 μM using DMEM/F12 culture media. Oligomerization was allowed to occur for 24h at 4° C. prior to addition to cells at 1 μM unless otherwise indicated.
For all non-live cell-based imaging, cells were cultured in 4-well chamber slides (Ibidi) and were fixed and stained as indicated. In brief, cells were fixed with 4% PFA for 10 min followed by permeabilization using 200 μg/ml digitonin for 10 min. Cells were blocked in 0.5% BSA in PBS for 30 min prior to staining with primary antibodies overnight at 4° C. Cells were then washed 3× in PBS and then stained with the indicated fluorescent secondary antibodies for 30 min. Cells were subsequently washed 3× with PBS and post-fixed in 1% PFA for 10 min prior to imaging. […]

[4] = system: BV2 cells; assay: Pro-inflammatory gene expression by qPCR after oligomeric Aβ1-42; format: cell-based, murine; conditions: BV2 cells treated with Aβ1-42
Protocol: Similarly, the effects of Aβ1-42 on microglia were examined. As expected, BV2 cells treated with Aβ1-42 had elevated pro-inflammatory gene expression, including IL-1β, IL-6, CCL5, and TNFα as reported (Pan et al. (2011) Mol Neurodegener 6:45) and consistent with human disease.
as §3
Total RNA was isolated from cells or tissue using the RNeasy Kit (Qiagen) according to the manufacturer's instructions. First-strand synthesis was performed using M-MLV reverse transcriptase (Invitrogen). Realtime PCR was performed using SYBR GREEN PCR master mix (Applied Biosystems) in an Applied Biosystems 7900HT thermocycler using SyBr Green detection protocol as outlined by the manufacturer using the following PCR conditions: 50° C. for 2 min, 95° C. for 10 min, and 40 cycles of 95° C. for 15s and 60° C. for 1 min. mRNA was normalized to actin allowing for comparison of mRNA levels. Please see key reagents table for qPCR primer sequences.

[5] = system: Atg16L^ΔWD mice; assay: Novel object recognition (NOR) after MCC950 treatment; format: in vivo, mouse; conditions: MCC950 8 weeks, trending towards wild-type littermates
Protocol: Novel object recognition (NOR) was performed in an open-field box (40 cm×40 cm). Mice were allowed to acclimate to the testing room for 48h. For habituation, mice were allowed to explore the open-field for 15 min per day for two days. Mice were then exposed to two identical objects for 10 min on the day of testing. 2h later a novel object was introduced, and mice were allowed to explore for 5 min during the test phase. The time spent exploring each object was quantified manually. Novel object preference (%) and the discrimination index ((time with novel)/(novel+familiar)*100) were calculated for each mouse.
(§4) Mice with established disease were treated for 8-weeks with either a vehicle (placebo) control or MCC950 (Invivogen) as reported previously (Gordon et al. 2018 Science Translational Medicine 10(465)). In brief, MCC950 was suspended in 100% DMSO and titrated to a working dose using sterile water. The final concentration of DMSO in the injection was <1%. Matching solution without MCC950 was used as the vehicle (placebo). Mice were injected every 3 days for 8-weeks at a dose of 10 mg/kg via intraperitoneal injection.

[6] = system: Atg16L^ΔWD mice; assay: Y-maze spontaneous alternation after MCC950 treatment; format: in vivo, mouse; conditions: MCC950 8 weeks, trending towards wild-type littermates
Protocol: For Y-maze spontaneous alternation analysis, mice were housed in the testing room and allowed to acclimate for 48h. The Y-maze test consisted of a single 5 min trial per mouse. Spontaneous Alternation [%] was defined as consecutive entries in 3 different arms (ABC), divided by the number of possible alternations (total arm entries minus 2). Mice with less than 5 arm entries during the 5 min trial were excluded from the analysis.
as §4

[7] = system: Atg16L^ΔWD mice; assay: Brain pathology by immunofluorescence/TUNEL after 8 weeks of MCC950 in mice with established disease; format: in vivo, mouse; conditions: MCC950 10 mg/kg i.p. every 3 days for 8 weeks
Protocol: Inflammasome inhibition has recently been proposed as putative therapeutic approach that reduces neuroinflammation and Tau phosphorylation (PMID: 31748742). Thus, Atg16L WD-domain deficient mice (Atg16L^ΔWD mice) with established disease (starting at 20 months of age) and behavioral impairment, as measured by both impaired spontaneous alternation and NOR (FIGS. 19A-19B), were treated with the brain-penetrant inflammasome inhibitor MCC950. […] However, no difference in Aβ deposition was observed between placebo and MCC950-treated mice (FIG. 19E).
Atg16^ΔWD mice were generated by deletion of the WD-domain of Atg16L, as previously described (Rai et al 2018(online) Autophagy 15(4)599-612). In brief, 2 stop codons were inserted into exon 6 of murine Atg16L1 immediately after glutamate E230 to preserve binding sites for WIPI2 (required for canonical autophagy) but prevent translation of the linker and WD-domain. Mice were produced and maintained on a mixed 129, C57BL/6 background. Unless otherwise noted, all experiments were performed on mixed sex cohorts at 2 years of age. Mice treated with MCC950 or placebo were mixed sex cohorts, 20 months of age at time of treatment onset and were treated for 8-weeks. The genetic backgrounds of mice used were assessed at the DartMouse™ Speed Congenic Core Facility at the Geisel School of Medicine at Dartmouth. DartMouse uses the Illumina, Inc. (San Diego, Calif.) Infinium Genotyping Assay to interrogate a custom panel of 5307 SNPs spread throughout the genome. The raw SNP data was analyzed using DartMouse's SNaP-Map™ and Map-Synth™ software, allowing the determination for each mouse of the genetic background at each SNP location. Background strain percentage was subsequently compared against markers of disease pathology to evaluate any influence stemming from variations in background (FIG. 18).
For preparation of brain tissue see “Preparation of brain samples” below. Slides were subjected to antigen retrieval using 1% sodium citrate boiling for 20 min followed by 3× PBS washing. Slides were blocked in 0.5% BSA in PBS. Antibody staining was carried out as described above. Following final washing, slides were mounted using ProLong Diamond Anti-Fade mounting media with DAPI.
Image analysis for relative Aβ, Iba1, and phospho-Tau staining was achieved by quantifying the mean fluorescent intensity (MFI) of either Iba1 or phospho-Tau signal using NIS-elements. Analysis and quantification of microglial morphology was achieved using Slidebook 6 software. Morphological state was determined by measuring cell diameter following 3D reconstruction and confirmed by manual counting/analysis of microglia shape per defined field across multiple areas of each slide. […]

C/C1=C/C(=O)O[C@@H]2C[C@@H](CC[C@H](C)/C=C\C=C\CC1)O[C@@](O)([C@@H]1CSC(=O)N1)C2 [latrunculin A]
association of LC3 to endosomal membranes in response to β-amyloid [1]: did not alter | uptake of the endocytic substrate dextran ([2]; dextran 500 ng/ml): had no effect | internalization of the phagocytic substrate zymosan ([2]; zymosan 4:1 particle:cell): prevented the internalization | uptake of β-amyloid ([2]; β-amyloid 1 μM): had no effect

Aβ1-42: neurotoxic oligomeric β-amyloid 1-42 peptide, labeled or unlabeled (Anaspec)
co-localization/recruitment of LC3 to the β-amyloid [3]: induced rapid co-localization | pro-inflammatory gene expression, including IL-1β, IL-6, CCL5, and TNFα [4]: elevated

CC(C)(O)c1coc(S(=O)(=O)NC(=O)Nc2c3c(cc4c2CCC4)CCC3)c1 [MCC950]
behavioral and memory capacity in NOR (novel object preference, discrimination index) [5]: restoration | behavioral and memory capacity in the Y-maze (spontaneous alternation) [6]: restoration | microglial activation (Iba1 staining, hippocampus) ([7]; 20 months at onset, compared to placebo): reduced | Aβ deposition (hippocampus) ([7]; versus placebo): no difference | Tau phosphorylation (S199/202, CA3-field) ([7]; versus placebo): massive reduction | neurodegeneration as measured by TUNEL staining (CA3-field) ([7]; versus placebo): massive reduction
